Laboratory results as given in ChEMBL document CHEMBL4680302, “Biologic-like In Vivo Efficacy with Small Molecule Inhibitors of TNFα Identified Using Scaffold Hopping and Structure-Based Drug Design Approaches” (J Med Chem, 2020).

Tests used:
[1] = biological target: T1, Tumor necrosis factor receptor superfamily member 1A (Homo sapiens) (UniProt P19438); assay: Binding affinity to TNFR1 (unknown origin) assessed as apparent molecular weight of protein at 25 uM by ultracentrifugation analysis (reference value: 27 kDa)
T1 sequence (whole entry): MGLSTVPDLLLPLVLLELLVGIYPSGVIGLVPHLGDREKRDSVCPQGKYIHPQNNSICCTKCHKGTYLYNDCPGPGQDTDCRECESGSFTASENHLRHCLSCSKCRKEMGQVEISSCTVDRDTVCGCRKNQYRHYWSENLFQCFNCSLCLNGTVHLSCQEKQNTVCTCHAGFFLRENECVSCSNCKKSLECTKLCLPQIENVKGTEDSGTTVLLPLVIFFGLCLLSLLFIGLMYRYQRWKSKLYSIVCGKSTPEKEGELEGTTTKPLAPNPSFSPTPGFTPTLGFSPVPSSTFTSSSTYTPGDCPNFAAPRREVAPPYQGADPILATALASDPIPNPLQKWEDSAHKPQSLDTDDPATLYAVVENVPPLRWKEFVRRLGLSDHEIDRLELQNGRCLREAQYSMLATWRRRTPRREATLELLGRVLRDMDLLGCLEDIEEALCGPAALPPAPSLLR

[2] = Oral bioavailability in mouse at 2 mg/kg; assay type: ADME, organism-based; settings: in vivo
Mus musculus [3] = assay: Antiarthritic activity against anticollagen antibody-induced arthritis BALB/c mouse model assessed as reduction in LPS-induced CXCL10 levels administered orally twice daily followed by LPS stimulation after 6 hrs measured on day 12 by RT-PCR analysis; assay type: functional, organism-based; settings: dose 2-10 mg/kg, time 12.0 day
Lymphotoxin-beta = biological target: T2, Lymphotoxin-beta (Homo sapiens, UniProt Q06643); assay: Inhibition of LTbeta (unknown origin)
T2 sequence (Q06643 whole entry): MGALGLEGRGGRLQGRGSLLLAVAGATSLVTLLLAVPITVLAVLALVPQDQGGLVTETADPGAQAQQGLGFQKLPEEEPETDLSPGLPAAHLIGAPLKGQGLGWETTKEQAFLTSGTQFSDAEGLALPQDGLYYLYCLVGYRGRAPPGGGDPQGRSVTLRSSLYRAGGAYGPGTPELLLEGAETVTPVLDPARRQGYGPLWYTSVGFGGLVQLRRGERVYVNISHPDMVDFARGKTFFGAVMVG

[4] = Permeability of the compound across basolateral to apical side of membrane in human Caco-2 cells; assay type: ADME, cell-based; settings: read-out: permeability
[5] = Cmax in mouse at 2 mg/kg, po; assay type: ADME, organism-based; design: route oral, dose 2 mg/kg; settings: in vivo
[6] = Metabolic stability in human liver microsomes assessed as half-life; assay type: ADME, Microsome
[7] = Terminal drug exposure in anticollagen antibody-induced arthritis BALB/c mouse model at 2 mg/kg, po BID followed by LPS stimulation after 6 hrs measured on day 12; assay type: ADME, organism-based; settings: in vivo, time 12 day, read-out: Drug uptake
[8] = Selectivity ratio of drug exposure in TNFalpha-induced C57BL/6J mouse at 5 mg/kg, po at 3 hrs post dose to IC50 for inhibition of human TNFalpha expressed in HEK-Blue-CD40L cells assessed as inhibition of NFkappaB activation by quanti-blue based SEAP assay
[9] = Selectivity ratio of drug exposure in anticollagen antibody-induced arthritis BALB/c mouse model at 2 mg/kg, po BID for 12 days to IC50 for inhibition of human TNFalpha expressed in HEK-Blue-CD40L cells assessed as inhibition of NFkappaB activation by quanti-blue based SEAP assay
Cytochrome P450 2D6 = Cytochrome P450 2D6 (Homo sapiens, UniProt P10635); assay: Inhibition of recombinant CYP2D6 (unknown origin); assay type: ADME
Cytochrome P450 2D6, sequence (P10635 whole entry): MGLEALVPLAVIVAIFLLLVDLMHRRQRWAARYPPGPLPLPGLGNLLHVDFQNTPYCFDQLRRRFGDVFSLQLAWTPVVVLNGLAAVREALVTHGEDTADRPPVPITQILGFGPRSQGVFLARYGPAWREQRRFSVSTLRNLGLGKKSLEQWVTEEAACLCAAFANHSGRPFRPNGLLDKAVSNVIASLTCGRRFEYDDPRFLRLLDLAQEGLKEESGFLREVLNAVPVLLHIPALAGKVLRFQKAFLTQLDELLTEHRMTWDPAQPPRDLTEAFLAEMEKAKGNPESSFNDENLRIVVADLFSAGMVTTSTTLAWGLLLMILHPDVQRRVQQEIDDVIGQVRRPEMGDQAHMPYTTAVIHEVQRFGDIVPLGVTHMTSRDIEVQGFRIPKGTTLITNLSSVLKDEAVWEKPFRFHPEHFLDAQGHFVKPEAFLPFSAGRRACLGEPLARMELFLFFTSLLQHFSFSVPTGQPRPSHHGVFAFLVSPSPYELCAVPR

[10] = Terminal drug exposure in anticollagen antibody-induced arthritis BALB/c mouse model at 10 mg/kg, po BID followed by LPS stimulation after 6 hrs measured on day 12; assay type: ADME, organism-based; settings: in vivo, time 12 day, read-out: Drug uptake
Cytochrome P450 1A2 = biological target: T3, Cytochrome P450 1A2 (Homo sapiens, UniProt P05177); assay: Inhibition of recombinant CYP1A2 (unknown origin); assay type: ADME
T3 sequence (P05177 whole entry): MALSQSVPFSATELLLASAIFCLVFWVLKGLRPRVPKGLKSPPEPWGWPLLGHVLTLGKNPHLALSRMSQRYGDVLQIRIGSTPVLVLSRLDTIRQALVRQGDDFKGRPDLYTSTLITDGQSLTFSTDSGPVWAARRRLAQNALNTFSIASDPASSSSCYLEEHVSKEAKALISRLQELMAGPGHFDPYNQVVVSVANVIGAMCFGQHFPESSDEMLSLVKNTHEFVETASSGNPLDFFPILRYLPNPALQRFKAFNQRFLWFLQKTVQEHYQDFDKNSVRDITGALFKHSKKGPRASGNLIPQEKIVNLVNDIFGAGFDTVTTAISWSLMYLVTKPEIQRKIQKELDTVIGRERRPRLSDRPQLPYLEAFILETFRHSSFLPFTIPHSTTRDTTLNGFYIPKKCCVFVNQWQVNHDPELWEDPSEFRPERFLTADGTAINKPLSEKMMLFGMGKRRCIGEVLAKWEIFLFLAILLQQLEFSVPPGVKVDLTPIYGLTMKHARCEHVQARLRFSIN

Mus musculus [11] = assay: Antiarthritic activity against anticollagen antibody-induced arthritis BALB/c mouse model assessed as reduction in LPS-induced IL-17a production administered orally twice daily followed by LPS stimulation after 6 hrs measured on day 12 by RT-PCR analysis; assay type: functional, organism-based; settings: dose 2-10 mg/kg, time 12.0 day
[12] = biological target: T1, Tumor necrosis factor receptor superfamily member 1A (Homo sapiens); assay: Binding affinity to TNFR1 (unknown origin) assessed as sedimentation coefficient (S) value at 25 uM in presence of human TNFalpha by ultracentrifugation analysis (reference value: 2.2)
[13] = biological target: T1, Tumor necrosis factor receptor superfamily member 1A (Homo sapiens); assay: Binding affinity to TNFR1 (unknown origin) assessed as apparent molecular weight of protein at 25 uM in presence of human TNFalpha by ultracentrifugation analysis (reference value: 27 kDa)
[14] = biological target: T4, Tumor necrosis factor ligand superfamily member 6 (Homo sapiens, UniProt P48023); assay: Inhibition of FasL (unknown origin)
T4 sequence (P48023 whole entry): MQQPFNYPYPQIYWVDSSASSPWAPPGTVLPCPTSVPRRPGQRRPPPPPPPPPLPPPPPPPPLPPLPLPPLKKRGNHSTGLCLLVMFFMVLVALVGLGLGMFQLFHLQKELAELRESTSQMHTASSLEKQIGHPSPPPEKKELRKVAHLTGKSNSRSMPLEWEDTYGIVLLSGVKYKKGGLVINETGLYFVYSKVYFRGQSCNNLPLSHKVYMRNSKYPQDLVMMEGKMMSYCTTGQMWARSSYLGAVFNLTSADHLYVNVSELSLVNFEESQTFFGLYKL

[15] = Permeability of the compound across apical to basolateral side of membrane in human Caco-2 cells; assay type: ADME, cell-based; settings: read-out: permeability
Cytochrome P450 2C19 = Cytochrome P450 2C19 (Homo sapiens, UniProt P33261); assay: Inhibition of recombinant CYP2C19 (unknown origin); assay type: ADME
Cytochrome P450 2C19, sequence (P33261 whole entry): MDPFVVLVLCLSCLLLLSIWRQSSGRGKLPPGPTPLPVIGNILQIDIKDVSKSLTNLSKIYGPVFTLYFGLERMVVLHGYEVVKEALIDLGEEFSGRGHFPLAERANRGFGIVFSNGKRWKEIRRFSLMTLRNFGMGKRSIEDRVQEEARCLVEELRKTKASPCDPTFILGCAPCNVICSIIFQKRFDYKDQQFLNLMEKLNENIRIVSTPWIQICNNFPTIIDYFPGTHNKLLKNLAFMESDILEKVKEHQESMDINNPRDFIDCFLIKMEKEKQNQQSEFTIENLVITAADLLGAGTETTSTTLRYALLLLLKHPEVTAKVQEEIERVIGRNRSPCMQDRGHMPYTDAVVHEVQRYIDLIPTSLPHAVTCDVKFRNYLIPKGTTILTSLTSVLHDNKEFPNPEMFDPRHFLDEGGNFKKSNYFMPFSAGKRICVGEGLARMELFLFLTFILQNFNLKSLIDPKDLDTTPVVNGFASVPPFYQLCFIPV

[16] = Total AUC in mouse at 2 mg/kg, po; assay type: ADME, organism-based; design: time AUCmax, route oral, dose 2 mg/kg; settings: in vivo
[17] = biological target: T1, Tumor necrosis factor receptor superfamily member 1A (Homo sapiens); assay: Binding affinity to TNFR1 (unknown origin) assessed as sedimentation coefficient (S) value at 25 uM by ultracentrifugation analysis (reference value: 2.2)
Cytochrome P450 2C9 = Cytochrome P450 2C9 (Homo sapiens, UniProt P11712); assay: Inhibition of recombinant CYP2C9 (unknown origin); assay type: ADME
Cytochrome P450 2C9, sequence (P11712 whole entry): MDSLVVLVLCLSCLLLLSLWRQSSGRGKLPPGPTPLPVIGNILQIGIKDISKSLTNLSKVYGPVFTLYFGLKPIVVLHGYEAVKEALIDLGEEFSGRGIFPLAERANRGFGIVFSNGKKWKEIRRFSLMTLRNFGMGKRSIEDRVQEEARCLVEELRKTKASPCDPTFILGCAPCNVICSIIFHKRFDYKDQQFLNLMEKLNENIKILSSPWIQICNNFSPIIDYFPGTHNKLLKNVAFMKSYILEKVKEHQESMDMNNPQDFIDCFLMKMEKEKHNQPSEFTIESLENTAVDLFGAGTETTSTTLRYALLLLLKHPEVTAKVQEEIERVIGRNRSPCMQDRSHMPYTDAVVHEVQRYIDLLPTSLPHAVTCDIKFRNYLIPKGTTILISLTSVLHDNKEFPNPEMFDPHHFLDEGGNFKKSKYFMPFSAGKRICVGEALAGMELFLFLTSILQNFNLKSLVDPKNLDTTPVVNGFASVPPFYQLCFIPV

Cc1nc2cc(F)c(-c3cnc(C(C)(C)O)nc3)nc2c(N[C@H](C)c2cc(C#N)ccc2F)c1Cl
Activity [1]: 27 kDa
bioavailability [2]: 58%
Activity (Mus musculus [3]): Dose-dependent effect
IC50 (Lymphotoxin-beta): > 10 µM
Papp B→A [4]: 8 ×10⁻⁶ cm/s
Cmax [5]: 470 nM
half-life [6]: > 2 h
concentration at 288 h [7]: 340 nM
Selectivity ratio [8]: 2
Ratio [9]: 1
IC50 (Cytochrome P450 2D6): > 20 µM
concentration at 288 h [10]: 1130 nM
IC50 (Cytochrome P450 1A2): > 20 µM
Activity (Mus musculus [11]): Dose-dependent effect
Activity index [12]: 2.2
Activity [13]: 28 kDa
IC50 [14]: > 10 µM
Papp A→B [15]: 20 ×10⁻⁶ cm/s
IC50 (Cytochrome P450 2C19): > 20 µM
AUC [16]: 5.9 µM·h
Activity index [17]: 2.2
IC50 (Cytochrome P450 2C9): 2 µM
